Test results from US9409905B2, “Antibacterial compounds and methods for use” (PTC THERAPEUTICS, INC., priority 2011, dated 2016).
Values after ≈ are worked out from the molar mass of the structure shown.

Key:
[1] = tested on: E. coli LZ3111; assay: Antibacterial activity, MIC, quinolone resistant strain (Table 2); assay type: cell-based; conditions: Escherichia coli, LZ3111, read-out: MIC LZ3111
Summary of the method: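 Growth inhibition assessed by serial drug dilution in broth; endpoint was absence of macroscopically visible growth, reported as MIC, μg/mL.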

[2] = tested on: Staphylococcus aureus (S. aureus) 29213; assay: Antibacterial activity, microbroth dilution MIC (Table 1); assay type: cell-based; conditions: microbroth dilution, Gram-positive S. aureus 29213, read-out: MIC, 29213
Summary of the method: (§1)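 Values are MICs (μg/mL): the smallest drug amount at which macroscopically visible bacterial growth is absent under assay conditions, from a microdilution method in broth.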

[3] = tested on: Escherichia coli (E. coli) BAS849; assay: as above; assay type: cell-based; conditions: microbroth dilution, super sensitive Gram-negative E. coli BAS849, read-out: MIC, BAS849
Summary of the method: as §1

[4] = tested on: Pseudomonas aeruginosa (P. aeruginosa) 27853; assay: Antibacterial activity, MIC (Table 5); assay type: cell-based; conditions: P. aeruginosa 27853, read-out: MIC, 27853
Summary of the method: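 Using a microbroth dilution format, the minimum inhibitory concentration was recorded as the lowest tested concentration that stopped visible bacterial growth, expressed in μg/mL.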

[5] = tested on: A. baumannii MXX2240; assay: Antibacterial activity, MIC, resistant strain (Table 4); assay type: cell-based; conditions: Acinetobacter baumannii, MXX2240; resistant A. baumannii MMX2240, multi-drug resistant clinical isolate; read-out: MIC, MMX2240
Summary of the method: (§2)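 Compounds are serially diluted in microbroth, bacteria are grown under the test conditions, and growth is then inspected macroscopically. The lowest concentration without visible growth is reported as the MIC (μg/mL).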

[6] = tested on: K. pneumoniae MXX1232; assay: as above; assay type: cell-based; conditions: Klebsiella pneumoniae, MXX1232; resistant K. pneumoniae MMX1232, multi-drug resistant clinical isolate; read-out: MIC, MMX1232
Summary of the method: as §2

[7] = tested on: E. coli 25922; assay: Antibacterial activity, microbroth dilution MIC (Table 1); assay type: cell-based, Escherichia coli; conditions: Escherichia coli; microbroth dilution; control Gram-negative E. coli 25922 strain; read-out: MIC, 25922
Summary of the method: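 Broth microdilution against S. aureus 29213, E. coli 25922 and hypersensitive E. coli BAS849. MIC in μg/mL is the lowest drug concentration preventing macroscopically visible growth under test conditions.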

[8] = tested on: Klebsiella pneumoniae (K. pneumoniae) 35657; assay: Antibacterial activity, MIC (Table 4); assay type: cell-based; conditions: K. pneumoniae 35657, read-out: MIC, 35657
Summary of the method: as §2

[9] = tested on: Acinetobacter baumannii (A. baumannii) BAA747; assay: Antibacterial activity, MIC (Table 4); assay type: cell-based; conditions: A. baumannii BAA747, read-out: MIC, BAA747
Summary of the method: as §2

SMILES | MIC [1] [µg/mL] | MIC [2] [µg/mL] | MIC [3] [µg/mL] | MIC [4] [µg/mL] | MIC [5] [µg/mL] | MIC [6] [µg/mL] | MIC [7] [µg/mL] | MIC [8] [µg/mL] | MIC [9] [µg/mL]
CCc1c(-c2ccc3cn[nH]c3c2)[nH]c(=O)c(C(=O)O)c1O [Cpd 391, 5-ethyl-4-hydroxy-6-(1H-indazol-6-yl)-2-oxo-1,2-dihydropyridine-3-carboxylic acid] | 3.5 to 12.5 (≈ 11.7 to 41.8 µM) | 12.5 to 150 (≈ 41.8 to 501 µM) | 3.5 to 12.5 (≈ 11.7 to 41.8 µM) | 12.5 to 150 (≈ 41.8 to 501 µM) | 12.5 to 150 (≈ 41.8 to 501 µM) | 12.5 to 150 (≈ 41.8 to 501 µM) | 12.5 to 150 (≈ 41.8 to 501 µM) | 3.5 to 12.5 (≈ 11.7 to 41.8 µM) | 12.5 to 150 (≈ 41.8 to 501 µM)
COc1c(-c2ccc3c(ccn3C)c2)[nH]c(=O)c(C(=O)O)c1O [Cpd 377, 4-hydroxy-5-methoxy-6-(1-methyl-1H-indol-5-yl)-2-oxo-1,2-dihydropyridine-3-carboxylic acid] | 3.5 to 12.5 (≈ 11.1 to 39.8 µM) | 12.5 to 150 (≈ 39.8 to 477 µM) | < 1 | 12.5 to 150 (≈ 39.8 to 477 µM) | 3.5 to 12.5 (≈ 11.1 to 39.8 µM) | 12.5 to 150 (≈ 39.8 to 477 µM) | 12.5 to 150 (≈ 39.8 to 477 µM) | 12.5 to 150 (≈ 39.8 to 477 µM) | 12.5 to 150 (≈ 39.8 to 477 µM)
Cc1c(-c2ccc3c(c2)cc(CNCCN(C)C)n3C)[nH]c(=O)c(C(=O)O)c1O [Cpd 345, 6-(2-((2-(dimethylamino)ethylamino)methyl)-1-methyl-1H-indol-5-yl)-4-hydroxy-5-methyl-2-oxo-1,2-dihydropyridine-3-carboxylic acid] | 1 to 3.5 (≈ 2.51 to 8.78 µM) | 12.5 to 150 (≈ 31.4 to 376 µM) | 3.5 to 12.5 (≈ 8.78 to 31.4 µM) | 12.5 to 150 (≈ 31.4 to 376 µM) | 12.5 to 150 (≈ 31.4 to 376 µM) | 12.5 to 150 (≈ 31.4 to 376 µM) | 12.5 to 150 (≈ 31.4 to 376 µM) | 12.5 to 150 (≈ 31.4 to 376 µM) | 12.5 to 150 (≈ 31.4 to 376 µM)
CCc1c(-c2ccc3c(c2)cc2n3CC(N(C)C)C2)[nH]c(=O)c(C(=O)O)c1O.Cl (stereo not drawn) [Cpd 418, 6-(2-(dimethylamino)-2,3-dihydro-1H-pyrrolo[1,2-a]indol-7-yl)-5-ethyl-4-hydroxy-2-oxo-1,2-dihydropyridine-3-carboxylic acid hydrochloride] | < 1 | 12.5 to 150 | 3.5 to 12.5 | 12.5 to 150 | 3.5 to 12.5 | 12.5 to 150 | 3.5 to 12.5 | 3.5 to 12.5 | 3.5 to 12.5
CCc1ccc2[nH]c(-c3[nH]c(=O)c(C(=O)O)c(O)c3CC)cc2c1 [Cpd 381, 5-ethyl-6-(5-ethyl-1H-indol-2-yl)-4-hydroxy-2-oxo-1,2-dihydropyridine-3-carboxylic acid] | 12.5 to 150 (≈ 38.3 to 460 µM) | 3.5 to 12.5 (≈ 10.7 to 38.3 µM) | < 1 | 12.5 to 150 (≈ 38.3 to 460 µM) | 12.5 to 150 (≈ 38.3 to 460 µM) | 12.5 to 150 (≈ 38.3 to 460 µM) | 12.5 to 150 (≈ 38.3 to 460 µM) | 12.5 to 150 (≈ 38.3 to 460 µM) | 12.5 to 150 (≈ 38.3 to 460 µM)
Cc1c(-c2ccc3cn[nH]c3c2)[nH]c(=O)c(C(=O)O)c1O [Cpd 399, 4-hydroxy-6-(1H-indazol-6-yl)-5-methyl-2-oxo-1,2-dihydropyridine-3-carboxylic acid] | 12.5 to 150 (≈ 43.8 to 526 µM) | 12.5 to 150 (≈ 43.8 to 526 µM) | 12.5 to 150 (≈ 43.8 to 526 µM) | 12.5 to 150 (≈ 43.8 to 526 µM) | 12.5 to 150 (≈ 43.8 to 526 µM) | 12.5 to 150 (≈ 43.8 to 526 µM) | 12.5 to 150 (≈ 43.8 to 526 µM) | 12.5 to 150 (≈ 43.8 to 526 µM) | 12.5 to 150 (≈ 43.8 to 526 µM)
Cc1c(-c2ccc3cc[nH]c3c2)[nH]c(=O)c(C(=O)O)c1O [Cpd 424, 4-hydroxy-6-(1H-indol-6-yl)-5-methyl-2-oxo-1,2-dihydropyridine-3-carboxylic acid] | < 1 | 3.5 to 12.5 (≈ 12.3 to 44 µM) | 3.5 to 12.5 (≈ 12.3 to 44 µM) | 12.5 to 150 (≈ 44 to 528 µM) | < 1 | 12.5 to 150 (≈ 44 to 528 µM) | 12.5 to 150 (≈ 44 to 528 µM) | 12.5 to 150 (≈ 44 to 528 µM) | 12.5 to 150 (≈ 44 to 528 µM)
